Source: US11124554B2, “Modified ligand-gated ion channels and methods of use” (Howard Hughes Medical Institute, priority 2016, dated 2021)
“Also recorded” adds a separate entry of the source.

Tests used:
[1] = target: T1, α7^Q79S,L131G,Q139L-GlyR (Homo sapiens, UniProt P36544, L131G/Q139L/Q79S); assay: cell-based; type: cell-based
T1 construct: expressed in transfected cells

[2] = target: T2, α7^L131G,Y217F-GlyR (Homo sapiens, UniProt P36544, L131G/Y217F); assay: Agonist potency at chimeric channel (Table 9); type: cell-based
T2 construct: expressed in transfected cells

[3] = target: T3, α7^L131A-GlyR (Homo sapiens, UniProt P36544, L131A); assay: Agonist potency at chimeric channel (Table 9); type: cell-based
T3 construct: expressed in transfected cells

[4] = target: T4, α7^L131G,Q139L-GlyR (Homo sapiens, UniProt P36544, L131G/Q139L); assay: Agonist potency at chimeric channel (Table 9); type: cell-based
T4 construct: expressed in transfected cells

[5] = target: T5, α7^L131G,Q139L,Y217F-GlyR (Homo sapiens, UniProt P36544, L131G/Q139L/Y217F); assay: cell-based; type: cell-based
T5 construct: expressed in transfected cells

[6] = test system: mouse cortical neurons transfected with α7^L131G,Q139L,Y217F-GlyR; assay: Action potential firing of transfected cortical neurons; type: cell-based; settings: 10 nM; even with >6-fold greater injected current
Source text: FIGS. 9A-9D show activity of agonists on chimeric LGICs with a L131G mutation. FIG. 9A) A graph of EC50s for L131 LBD mutants against known agonists normalized to the unmodified α7-GlyR chimeric channel (log scale). […] Unmod.: unmodified α7-GlyR chimeric LGIC. FIG. 9D) Action potentials of a cortical neuron from a mouse brain transduced with α7^L131G,Q139L,Y217F-GlyR chimeric LGIC. […] After washout (WASH) of tropisetron, neuron firing is restored.
DNA plasmids containing nucleic acids encoding a α7L131G,Q139L,Y217F-GlyR chimeric LGICs were transfected into mouse cortical neurons. […] Neuron activity was silenced by application of low concentration of agonist (FIG. 9C).

[7] = target: T6, α7^L131G,Q139L,Y217F-5HT3 HC (Homo sapiens, UniProt P36544, L131G/M226I/Q139L/T225I/Y217F); assay: Agonist potency at chimeric channel (Table 9); type: cell-based; settings: α7^L131G,Q139L,Y217F-5HT3 HC
T6 construct: expressed in transfected cells

[8] = target: T7, α7^Q79S,L131G-GlyR (Homo sapiens, UniProt P36544, L131G/Q79S); assay: Agonist potency at chimeric channel (Table 9); type: cell-based
T7 construct: expressed in transfected cells

[9] = test system: α7^L131G-5HT3 HC; assay: Agonist potency at chimeric channel (Table 9); type: cell-based, human

T1 sequence (P36544 with tags, fused parts or gaps Q79S/L131G/Q139L): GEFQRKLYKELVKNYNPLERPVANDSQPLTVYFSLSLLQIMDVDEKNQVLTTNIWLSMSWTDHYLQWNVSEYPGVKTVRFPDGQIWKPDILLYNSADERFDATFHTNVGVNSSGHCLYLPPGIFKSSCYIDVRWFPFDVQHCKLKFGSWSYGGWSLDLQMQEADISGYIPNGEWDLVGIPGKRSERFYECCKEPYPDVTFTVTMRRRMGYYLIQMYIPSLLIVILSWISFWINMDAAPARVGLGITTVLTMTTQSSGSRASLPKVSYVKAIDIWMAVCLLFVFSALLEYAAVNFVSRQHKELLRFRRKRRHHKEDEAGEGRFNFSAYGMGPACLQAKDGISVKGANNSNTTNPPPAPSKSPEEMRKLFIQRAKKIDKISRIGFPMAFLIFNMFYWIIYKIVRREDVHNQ
T7 sequence (P36544 with tags, fused parts or gaps Q79S/L131G): as the sequence (P36544 with tags, fused parts or gaps Q79S/L131G/Q139L) above, with L117Q counted along it
T6 sequence (P36544 with tags, fused parts or gaps L131G/Q139L/Y217F/T225I/M226I limits assumed): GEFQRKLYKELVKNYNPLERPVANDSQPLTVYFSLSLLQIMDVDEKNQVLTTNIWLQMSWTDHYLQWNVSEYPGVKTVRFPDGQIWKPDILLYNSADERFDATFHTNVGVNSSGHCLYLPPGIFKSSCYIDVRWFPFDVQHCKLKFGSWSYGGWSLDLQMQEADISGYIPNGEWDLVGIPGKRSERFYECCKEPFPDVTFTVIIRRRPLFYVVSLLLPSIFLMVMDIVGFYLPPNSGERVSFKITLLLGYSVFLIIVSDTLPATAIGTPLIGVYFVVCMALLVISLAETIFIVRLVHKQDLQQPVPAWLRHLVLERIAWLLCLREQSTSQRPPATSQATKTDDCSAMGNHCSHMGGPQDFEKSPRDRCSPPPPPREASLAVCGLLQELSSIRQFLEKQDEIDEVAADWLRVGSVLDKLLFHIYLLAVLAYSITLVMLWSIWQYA
T2 sequence (P36544 with tags, fused parts or gaps L131G/Y217F): as the sequence (P36544 with tags, fused parts or gaps Q79S/L131G/Q139L) above, with S57Q, L117Q, Y195F counted along it
T5 sequence (P36544 with tags, fused parts or gaps L131G/Q139L/Y217F): as the sequence (P36544 with tags, fused parts or gaps Q79S/L131G/Q139L) above, with S57Q, Y195F counted along it
T4 sequence (P36544 with tags, fused parts or gaps L131G/Q139L): as the sequence (P36544 with tags, fused parts or gaps Q79S/L131G/Q139L) above, with S57Q counted along it
T3 sequence (P36544 with tags, fused parts or gaps L131A): as the sequence (P36544 with tags, fused parts or gaps Q79S/L131G/Q139L) above, with S57Q, G109A, L117Q counted along it

c1cnc2cc3c(cc2n1)[C@@H]1CNC[C@H]3C1 [Varenicline]
improved potency over α7-GlyR [1]: 31 fold
potency enhancement over α7-GlyR [2]: 21 fold
potency enhancement [3]: 8 fold
potency enhancement over α7-GlyR [4]: 21 fold
improvement in potency over α7-GlyR [5]: 387 fold
suppression of action potential firing [6]: silenced; also recorded: potently suppressed
improved potency over a7-5HT3 [7]: 131 fold
improved potency over α7-GlyR [8]: 89 fold
potency enhancement [9]: 16 fold
